The values below come from US6916812B2, “Alpha-aminoamide derivatives as melanocortin agonists” (Bristol-Myers Squibb Company, priority 2001, dated 2005).

In the assay the target is T1, cloned human MC4R (Homo sapiens, UniProt P32245).
T1 construct: made in house; host or cells: Hi5 insect cells (baculovirus infection); membrane preparation
In words: Membrane binding assay: competitive inhibition of [125I]NDP-α-MSH binding. The following applies: for inhibition at 10 µM: read-out: Displacement Rate (%) (at 10 μM); for IC50: read-out: MC4R IC50. On the procedure:
Hi5 cells are infected using the following protocol: Cells at a density of 1×10^6 cells/mL are spun down at 1000 rpm (Beckman GS-6KR centrifuge) for 10 minutes. Cells are resuspended in 10% of their original volume in a sterile 50 mL conical centrifuge tube wrapped with aluminum foil. Virus is added at a Multiplicity of Infection (MOI) of 3 and incubated for 1 hour at room temperature with gentle shaking. […] Cells are spun down in 50 mL conical centrifuge tubes at 1000 rpm for 10 minutes. Each of the resulting pellets are resuspended in 10 mL of cold (4° C.) membrane buffer (25 mM HEPES, pH 7.4, 140 mM NaCl, 1.2 mM MgCl2, 2.5 mM CaCl2, 10 μG/mL Aprotinin, 10 μG/mL Leupeptin) and Dounce homogenized using 10-12 strokes. […] The resulting pellet is resuspended in cold membrane buffer in a total of ¼ of the original volume by vortexing and aspiration using a syringe and 27 gauge needle. Protein content is determined (Bradford, Bio-Rad Protein Assay). Membranes are aliquoted in microcentrifuge tubes and quick frozen in liquid nitrogen. Store at −80° C. until use. The membrane binding buffer is composed of 25 mM HEPES, pH 7.4, 140 mM NaCl, 1.2 mM MgCl2, 2.5 mM CaCl2, 0.1% BSA. […] The mixture is filtered with Brandel Microplate 96 filter apparatus using 96-well GF/B filter presoaked in 1-% polyethyleneimine (Sigma). The filter is washed (4 times with a total of 1 mL per well) with cold wash buffer consisting of 20 mM HEPES, pH 7.4, 5 mM MgCl2. […] 100 μl of Wallac Optiphase Supermix scintillation fluid is added to each well. The top is sealed and the plates are shaken to insure that the filters are thoroughly soaked with fluid. […] Dose-response curves are fitted by […] analyses and IC50 values are calculated using ExcelFit.

Where [1] appears, read: at 10 μM, [125I]NDP-α-MSH displacement.

The structures appear in SMILES notation. Like-named read-outs stand apart in the source and are kept apart here. Bounds are passed on as bounds.

T1 sequence (P32245 whole entry): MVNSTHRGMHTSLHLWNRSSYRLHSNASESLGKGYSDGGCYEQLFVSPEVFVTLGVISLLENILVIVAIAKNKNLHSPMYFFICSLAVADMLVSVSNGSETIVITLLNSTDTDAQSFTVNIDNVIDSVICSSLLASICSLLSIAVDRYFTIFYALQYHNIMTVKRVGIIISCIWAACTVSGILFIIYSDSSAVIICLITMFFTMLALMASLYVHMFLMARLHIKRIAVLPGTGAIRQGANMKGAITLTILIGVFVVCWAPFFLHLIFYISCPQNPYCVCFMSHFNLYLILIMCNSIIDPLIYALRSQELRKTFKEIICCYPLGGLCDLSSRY

On to `CC(C)(C)c1cc(CN2CCN(C(=O)[C@@H](N)Cc3ccc(OCc4ccccc4)cc3)CC2)cc(C(C)(C)C)c1O` [Example 92], for which the IC50 – broadly, the concentration needed to halve the response being measured – is < 1.5 µM. Besides, the inhibition at 10 µM under setting [1] was in the range of 91 to 100%.

Regarding `N[C@@H](Cc1ccc(OCc2ccccc2)cc1)C(=O)N1CCN(Cc2cccc(Cl)c2Cl)CC1` [Example 93], the IC50 was < 1.5 µM. Also, the inhibition at 10 µM under setting [1] lay in the range of 91 to 100%.

As to `N[C@@H](Cc1ccc(OCc2ccccc2)cc1)C(=O)N1CCN(Cc2ccccc2C(F)(F)F)CC1` [Example 94], the half-inhibitory concentration (IC50) fell in the range of 1.5 to 3 µM. Also, under setting [1], the inhibition at 10 µM was in the range of 91 to 100%.

Take `N[C@@H](Cc1ccc(OCc2ccccc2)cc1)C(=O)N1CCN(Cc2ccc(-c3ccccc3)cc2)CC1` [Example 95]: the IC50 was < 1.5 µM. The inhibition at 10 µM under setting [1] was 91 to 100%.

For `CCCCc1ccc(CN2CCN(C(=O)[C@@H](N)Cc3ccc(OCc4ccccc4)cc3)CC2)cc1` [Example 96], the half-maximal inhibitory concentration (IC50) is < 1.5 µM. For the same molecule, the inhibition at 10 µM under setting [1] is 91 to 100%.

With `Cc1ccc(S(=O)(=O)n2cc(CN3CCN(C(=O)[C@@H](N)Cc4ccc(OCc5ccccc5)cc4)CC3)c3ccccc32)cc1` [Example 97], the IC50 is < 1.5 µM. Further, under setting [1], the inhibition at 10 µM fell in the range of 91 to 100%.

For the molecule `N[C@@H](Cc1ccc(OCc2ccccc2)cc1)C(=O)N1CCN(Cc2ccc(C(F)(F)F)cc2C(F)(F)F)CC1` [Example 98], the IC50 lay in the range of 1.5 to 3 µM. The inhibition at 10 µM under setting [1] lay in the range of 91 to 100%.

On to `CCCCCOc1ccc(CN2CCN(C(=O)[C@@H](N)Cc3ccc(OCc4ccccc4)cc3)CC2)cc1` [Example 99], for which the IC50 is < 1.5 µM. Moreover, under setting [1], the inhibition at 10 µM fell in the range of 91 to 100%.

Regarding `N[C@@H](Cc1ccc(OCc2ccccc2)cc1)C(=O)N1CCN(Cc2c3ccccc3cc3ccccc23)CC1` [Example 100], the inhibition at 10 µM was in the range of 91 to 100% and the IC50 was in the range of 1.5 to 3 µM.

Take `N[C@@H](Cc1ccc(OCc2ccccc2)cc1)C(=O)N1CCN(Cc2cc(C(F)(F)F)cc(C(F)(F)F)c2)CC1` [Example 101]: the half-maximal inhibitory concentration (IC50) was < 1.5 µM. Besides, the inhibition at 10 µM under setting [1] was in the range of 91 to 100%.

Regarding `N[C@@H](Cc1ccc(OCc2ccccc2)cc1)C(=O)N1CCN(CC(c2ccccc2)c2ccccc2)CC1` [Example 102], the IC50 was in the range of 1.5 to 3 µM. Also, the inhibition at 10 µM under setting [1] lay in the range of 91 to 100%.

As for `N[C@@H](Cc1ccc(OCc2ccccc2)cc1)C(=O)N1CCN(Cc2cccc(Oc3ccccc3)c2)CC1` [Example 103], the IC50 was < 1.5 µM. Besides, the inhibition at 10 µM under setting [1] lay in the range of 91 to 100%.

On to `CCOc1ccc(CN2CCN(C(=O)[C@@H](N)Cc3ccc(OCc4ccccc4)cc3)CC2)c(OCC)c1C` [Example 104], for which the IC50 lay within 1.5 to 3 µM. Also, the inhibition at 10 µM under setting [1] was in the range of 91 to 100%.

In the case of `N[C@@H](Cc1ccc(OCc2ccccc2)cc1)C(=O)N1CCN(Cc2ccc3ccccc3c2)CC1` [Example 105], the half-inhibitory concentration (IC50) was < 1.5 µM. Besides, the inhibition at 10 µM under setting [1] was 71 to 90%.

With `COc1ccc2ccccc2c1CN1CCN(C(=O)[C@@H](N)Cc2ccc(OCc3ccccc3)cc2)CC1` [Example 106], the IC50 was 1.5 to 3 µM. In addition, the inhibition at 10 µM under setting [1] lay in the range of 71 to 90%.

Regarding `Cc1ccc(C)c(CN2CCN(C(=O)[C@@H](N)Cc3ccc(OCc4ccccc4)cc3)CC2)c1` [Example 107], the IC50 fell in the range of 1.5 to 3 µM. Further, the inhibition at 10 µM under setting [1] was in the range of 71 to 90%.

Regarding `N[C@@H](Cc1ccc(OCc2ccccc2)cc1)C(=O)N1CCN(Cc2ccccc2-c2ccccc2)CC1` [Example 109], the IC50 is > 3 µM. The inhibition at 10 µM under setting [1] fell in the range of 71 to 90%.

Consider `N[C@@H](Cc1ccc(OCc2ccccc2)cc1)C(=O)N1CCN(Cc2ccc(OCc3ccc([N+](=O)[O-])cc3)cc2)CC1` [Example 110], for which the IC50 is < 1.5 µM. In addition, the inhibition at 10 µM under setting [1] lay in the range of 71 to 90%.

In the case of `N[C@@H](Cc1ccc(OCc2ccccc2)cc1)C(=O)N1CCN(Cc2ccccc2[N+](=O)[O-])CC1` [Example 111], the IC50 is > 3 µM. The inhibition at 10 µM under setting [1] was in the range of 71 to 90%.

With `CC(C)(C)c1ccc(CN2CCN(C(=O)[C@@H](N)Cc3ccc(OCc4ccccc4)cc3)CC2)cc1` [Example 112], the IC50 is 1.5 to 3 µM. In addition, the inhibition at 10 µM under setting [1] is 71 to 90%.

Turning to `N[C@@H](Cc1ccc(OCc2ccccc2)cc1)C(=O)N1CCN(CC2CCCCC2)CC1` [Example 113], the IC50 was < 1.5 µM. Moreover, the inhibition at 10 µM under setting [1] is 71 to 90%.

With `N[C@@H](Cc1ccc(OCc2ccccc2)cc1)C(=O)N1CCN(Cc2ccc(Cl)c([N+](=O)[O-])c2)CC1` [Example 114], the inhibition at 10 µM fell in the range of 71 to 90% and the IC50 is > 3 µM.

As for `COc1cc(CN2CCN(C(=O)[C@@H](N)Cc3ccc(OCc4ccccc4)cc3)CC2)ccc1OCc1ccccc1` [Example 115], the IC50 is > 3 µM. Moreover, the inhibition at 10 µM under setting [1] fell in the range of 71 to 90%.

`CCOc1ccccc1CN1CCN(C(=O)[C@@H](N)Cc2ccc(OCc3ccccc3)cc2)CC1` [Example 116]: the IC50 was 1.5 to 3 µM. Under setting [1], the inhibition at 10 µM was 71 to 90%.

In the case of `CCOc1cccc(CN2CCN(C(=O)[C@@H](N)Cc3ccc(OCc4ccccc4)cc3)CC2)c1O` [Example 117], the IC50 is > 3 µM. For the same molecule, the inhibition at 10 µM under setting [1] lay within 71 to 90%.

For `N[C@@H](Cc1ccc(OCc2ccccc2)cc1)C(=O)N1CCN(C2CCC(c3ccccc3)CC2)CC1` (stereo partly drawn) [Example 118], the IC50 is > 3 µM. For the same molecule, under setting [1], the inhibition at 10 µM fell in the range of 71 to 90%.

With `N[C@@H](Cc1ccc(OCc2ccccc2)cc1)C(=O)N1CCN(Cc2ccc(Cl)cc2Cl)CC1` [Example 119], the IC50 was > 3 µM. The inhibition at 10 µM under setting [1] is 71 to 90%.

Take `N[C@@H](Cc1ccc(OCc2ccccc2)cc1)C(=O)N1CCN(Cc2cccc(F)c2F)CC1` [Example 120]: the half-maximal inhibitory concentration (IC50) was > 3 µM. In addition, under setting [1], the inhibition at 10 µM is 71 to 90%.

Consider `COc1cc(CN2CCN(C(=O)[C@@H](N)Cc3ccc(OCc4ccccc4)cc3)CC2)cc(Br)c1OC` [Example 121], for which the IC50 fell in the range of 1.5 to 3 µM. For the same molecule, the inhibition at 10 µM under setting [1] was in the range of 71 to 90%.

With `CCCCCCCN1CCN(C(=O)[C@@H](N)Cc2ccc(OCc3ccccc3)cc2)CC1` [Example 122], the 50% inhibitory concentration (IC50) is 1.5 to 3 µM. Further, under setting [1], the inhibition at 10 µM fell in the range of 71 to 90%.

Turning to `N[C@@H](Cc1ccc(OCc2ccccc2)cc1)C(=O)N1CCN(Cc2cccc(C(F)(F)F)c2)CC1` [Example 123], the IC50 was > 3 µM. Further, the inhibition at 10 µM under setting [1] lay within 71 to 90%.

With `N[C@@H](Cc1ccc(OCc2ccccc2)cc1)C(=O)N1CCN(Cc2cc3c(cc2Cl)OCO3)CC1` [Example 124], the inhibition at 10 µM was 71 to 90% and the IC50 was > 3 µM.

As to `CSc1ccc(CN2CCN(C(=O)[C@@H](N)Cc3ccc(OCc4ccccc4)cc3)CC2)cc1` [Example 125], the IC50 lay in the range of 1.5 to 3 µM. In addition, the inhibition at 10 µM under setting [1] is 71 to 90%.

`CCCOc1ccc(CN2CCN(C(=O)[C@@H](N)Cc3ccc(OCc4ccccc4)cc3)CC2)cc1` [Example 126]: the IC50 was 1.5 to 3 µM. For the same molecule, under setting [1], the inhibition at 10 µM was 71 to 90%.

Turning to `N[C@@H](Cc1ccc(OCc2ccccc2)cc1)C(=O)N1CCN(Cc2cccc3ccccc23)CC1` [Example 127], under setting [1], the inhibition at 10 µM was in the range of 71 to 90%.

Take `Cc1ccsc1CN1CCN(C(=O)[C@@H](N)Cc2ccc(OCc3ccccc3)cc2)CC1` [Example 128]: the IC50 was > 3 µM. The inhibition at 10 µM under setting [1] lay within 35 to 70%.

On to `N[C@@H](Cc1ccc(OCc2ccccc2)cc1)C(=O)N1CCN(Cc2ccc(Br)cc2)CC1` [Example 129], for which the IC50 was > 3 µM. Besides, the inhibition at 10 µM under setting [1] was 35 to 70%.

In the case of `COc1cc(OC)c(CN2CCN(C(=O)[C@@H](N)Cc3ccc(OCc4ccccc4)cc3)CC2)cc1Br` [Example 130], the IC50 was > 3 µM. Under setting [1], the inhibition at 10 µM lay within 35 to 70%.

As to `CCc1ccc(CN2CCN(C(=O)[C@@H](N)Cc3ccc(OCc4ccccc4)cc3)CC2)s1` [Example 131], the IC50 was > 3 µM. In addition, the inhibition at 10 µM under setting [1] fell in the range of 35 to 70%.

Consider `COc1ccc(CCC(C)N2CCN(C(=O)[C@@H](N)Cc3ccc(OCc4ccccc4)cc3)CC2)cc1` (stereo partly drawn) [Example 132], for which the IC50 is > 3 µM. Further, the inhibition at 10 µM under setting [1] lay in the range of 35 to 70%.

In the case of `CCCCCCCCOc1ccc(CN2CCN(C(=O)[C@@H](N)Cc3ccc(OCc4ccccc4)cc3)CC2)cc1` [Example 133], the IC50 was < 1.5 µM. The inhibition at 10 µM under setting [1] was in the range of 35 to 70%.

Turning to `N[C@@H](Cc1ccc(OCc2ccccc2)cc1)C(=O)N1CCN(Cc2cc([N+](=O)[O-])ccc2Cl)CC1` [Example 134], the inhibition at 10 µM fell in the range of 35 to 70% and the IC50 lay in the range of 1.5 to 3 µM.

With `CCc1ccc(CN2CCN(C(=O)[C@@H](N)Cc3ccc(OCc4ccccc4)cc3)CC2)cc1` [Example 135], the IC50 is > 3 µM. In addition, under setting [1], the inhibition at 10 µM is 35 to 70%.

For the molecule `CC(Cc1cccc(C(F)(F)F)c1)N1CCN(C(=O)[C@@H](N)Cc2ccc(OCc3ccccc3)cc2)CC1` (stereo partly drawn) [Example 136], the IC50 was > 3 µM. Also, under setting [1], the inhibition at 10 µM lay in the range of 35 to 70%.
